In ChEMBL document CHEMBL5291721, “A preclinical secondary pharmacology resource illuminates target-adverse drug reaction associations of marketed drugs” (Nat Commun, 2023) one finds AC50 data, which are given here for 24 compounds.

As usually defined, the AC50 is the midpoint of the concentration-response curve, whichever way the signal moves. Low values mean activity at low concentration, high ones activity only at high concentration.

Molecules are shown by their SMILES. A value given as a limit tells only on which side of the number the result lay.

For experiment [1], the target named is T1, Adenosine receptor A3 (Homo sapiens, UniProt P0DMS8).
T1 sequence (P0DMS8 whole entry): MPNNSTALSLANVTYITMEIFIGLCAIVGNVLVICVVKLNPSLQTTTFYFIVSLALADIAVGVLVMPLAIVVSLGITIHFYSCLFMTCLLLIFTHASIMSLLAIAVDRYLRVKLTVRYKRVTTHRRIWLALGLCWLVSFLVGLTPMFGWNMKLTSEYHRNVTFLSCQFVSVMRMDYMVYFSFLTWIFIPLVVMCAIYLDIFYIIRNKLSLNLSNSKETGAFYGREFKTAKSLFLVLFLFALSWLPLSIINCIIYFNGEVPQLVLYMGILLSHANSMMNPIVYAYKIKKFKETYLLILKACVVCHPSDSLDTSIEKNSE

Experiment [2] addresses T2, Alpha-2C adrenergic receptor (Homo sapiens, UniProt P18825).
T2 sequence (P18825 whole entry): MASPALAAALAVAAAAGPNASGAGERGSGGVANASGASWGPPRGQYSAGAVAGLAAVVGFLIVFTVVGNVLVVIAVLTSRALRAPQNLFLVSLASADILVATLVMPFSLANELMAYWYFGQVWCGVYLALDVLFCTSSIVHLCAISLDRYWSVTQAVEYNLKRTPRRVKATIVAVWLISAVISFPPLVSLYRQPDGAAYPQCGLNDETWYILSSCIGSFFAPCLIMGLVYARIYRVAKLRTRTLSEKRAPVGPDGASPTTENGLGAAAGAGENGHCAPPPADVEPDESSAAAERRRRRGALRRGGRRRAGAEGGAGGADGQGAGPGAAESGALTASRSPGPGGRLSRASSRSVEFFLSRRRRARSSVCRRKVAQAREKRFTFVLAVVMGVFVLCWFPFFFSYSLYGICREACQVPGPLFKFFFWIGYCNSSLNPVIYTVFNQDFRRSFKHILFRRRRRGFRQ
In kind it is functional.

Experiment [3] concerns the target Vasopressin V2 receptor (Homo sapiens, UniProt P30518).
Experiment [4] addresses T3, Cholecystokinin receptor type A (Homo sapiens, UniProt P32238).
T3 sequence (P32238 whole entry): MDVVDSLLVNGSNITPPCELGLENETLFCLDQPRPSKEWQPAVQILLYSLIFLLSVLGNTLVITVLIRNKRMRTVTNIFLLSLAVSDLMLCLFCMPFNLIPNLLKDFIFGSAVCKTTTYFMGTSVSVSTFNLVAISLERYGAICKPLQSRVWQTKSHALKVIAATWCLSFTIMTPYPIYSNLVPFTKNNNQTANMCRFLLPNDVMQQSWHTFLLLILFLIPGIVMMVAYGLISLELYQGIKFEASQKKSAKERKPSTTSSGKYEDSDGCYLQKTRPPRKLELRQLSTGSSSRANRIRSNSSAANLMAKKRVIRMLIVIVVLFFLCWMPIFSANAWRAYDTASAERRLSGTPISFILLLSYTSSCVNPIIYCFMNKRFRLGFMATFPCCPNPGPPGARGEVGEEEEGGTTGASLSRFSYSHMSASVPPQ

Experiment [5] addresses T4, Progesterone receptor (Homo sapiens, UniProt P06401).
T4 sequence (P06401 whole entry): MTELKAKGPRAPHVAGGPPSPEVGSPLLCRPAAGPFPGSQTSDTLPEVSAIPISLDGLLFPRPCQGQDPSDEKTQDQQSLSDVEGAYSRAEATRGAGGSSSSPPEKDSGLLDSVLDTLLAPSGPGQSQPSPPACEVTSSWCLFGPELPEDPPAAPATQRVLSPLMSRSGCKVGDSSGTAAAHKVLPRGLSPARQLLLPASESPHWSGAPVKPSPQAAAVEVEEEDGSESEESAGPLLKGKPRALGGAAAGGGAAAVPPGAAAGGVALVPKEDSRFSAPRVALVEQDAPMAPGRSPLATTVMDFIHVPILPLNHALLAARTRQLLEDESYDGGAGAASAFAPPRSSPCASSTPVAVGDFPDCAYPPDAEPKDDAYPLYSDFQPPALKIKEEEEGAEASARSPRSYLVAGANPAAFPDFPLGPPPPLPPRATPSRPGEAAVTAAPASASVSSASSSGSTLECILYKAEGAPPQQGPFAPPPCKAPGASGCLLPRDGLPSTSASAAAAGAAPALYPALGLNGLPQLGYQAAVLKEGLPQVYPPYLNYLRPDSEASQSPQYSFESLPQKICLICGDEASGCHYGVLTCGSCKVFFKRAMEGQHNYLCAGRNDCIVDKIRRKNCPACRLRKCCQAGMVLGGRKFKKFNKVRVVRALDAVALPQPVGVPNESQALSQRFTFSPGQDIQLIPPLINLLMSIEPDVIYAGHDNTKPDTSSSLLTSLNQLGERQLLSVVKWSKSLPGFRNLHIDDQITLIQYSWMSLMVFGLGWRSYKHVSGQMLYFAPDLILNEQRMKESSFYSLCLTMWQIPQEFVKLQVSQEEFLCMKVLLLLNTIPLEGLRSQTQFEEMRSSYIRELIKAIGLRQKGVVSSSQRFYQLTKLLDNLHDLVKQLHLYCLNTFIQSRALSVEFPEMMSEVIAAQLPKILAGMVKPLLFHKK
In kind it is functional.
Further: assay procedure not described here.

Chain of Vasopressin V2 receptor (P30518 whole entry): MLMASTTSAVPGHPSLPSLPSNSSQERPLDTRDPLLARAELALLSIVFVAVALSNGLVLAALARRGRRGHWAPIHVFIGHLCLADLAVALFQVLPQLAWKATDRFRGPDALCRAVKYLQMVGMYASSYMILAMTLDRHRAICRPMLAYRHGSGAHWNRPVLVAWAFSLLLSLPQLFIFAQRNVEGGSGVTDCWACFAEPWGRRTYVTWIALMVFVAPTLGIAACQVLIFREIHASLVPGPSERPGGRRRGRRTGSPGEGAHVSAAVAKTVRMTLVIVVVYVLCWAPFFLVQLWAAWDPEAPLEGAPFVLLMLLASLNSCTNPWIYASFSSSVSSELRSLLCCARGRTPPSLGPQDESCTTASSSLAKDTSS

In the case of `COc1ccccc1OCC(O)COC(N)=O` (stereo unspecified) [METHOCARBAMOL], the AC50 in experiment [1] is above 10 µM; in experiment [2] it was above 10 µM; in experiment [3] it was above 10 µM; in experiment [4], above 10 µM; in experiment [5], above 30 µM.
In the case of `CC(=O)O[C@@]12CO[C@@H]1C[C@H](O)[C@@]1(C)C(=O)[C@H](O)C3=C(C)[C@@H](OC(=O)[C@H](O)[C@@H](NC(=O)OC(C)(C)C)c4ccccc4)C[C@@](O)([C@@H](OC(=O)c4ccccc4)[C@H]21)C3(C)C` [DOCETAXEL ANHYDROUS], the AC50 in experiment [1], in experiment [2], in experiment [3], in experiment [4] and in experiment [5] was above 30 µM each time.
With `CC[C@]1(O)C[C@@H]2CN(CCc3c([nH]c4ccccc34)[C@@](C(=O)OC)(c3cc4c(cc3OC)N(C)[C@H]3[C@@](O)(C(N)=O)[C@H](O)[C@]5(CC)C=CCN6CC[C@]43[C@@H]65)C2)C1` [VINDESINE], the AC50 in experiment [1], in experiment [2], in experiment [3], in experiment [4] and in experiment [5] was above 30 µM throughout.
Take `CCN1CCC[C@H]1CNC(=O)c1cc(S(N)(=O)=O)ccc1OC` [LEVOSULPIRIDE]: the AC50 in experiment [1], in experiment [3] and in experiment [4] was above 30 µM in each case.
Regarding `CCN(CC)CCOC(=O)c1ccc(N)cc1` [PROCAINE], the AC50 in experiment [1] is above 30 µM; in experiment [2], above 10 µM; in experiment [3], above 30 µM; in experiment [4] it was above 30 µM.
Regarding `CCCOc1ccc(C(=O)OCCN(CC)CC)cc1N` [PROPARACAINE], the AC50 in experiment [1], in experiment [2], in experiment [3], in experiment [4] and in experiment [5] was above 30 µM each time.
In the case of `Nc1nc2ccc(OC(F)(F)F)cc2s1` [RILUZOLE], the AC50 in experiment [1], in experiment [2], in experiment [3], in experiment [4] and in experiment [5] was above 30 µM throughout.
As for `COc1c(C)c2c(c(O)c1C/C=C(\C)CCC(=O)OCCN1CCOCC1)C(=O)OC2` [MYCOPHENOLATE MOFETIL], the AC50 in experiment [1], in experiment [2], in experiment [3], in experiment [4] and in experiment [5] was above 30 µM each time.
Turning to `O=C1NCCN1CCN1CCC(c2cn(-c3ccc(F)cc3)c3ccc(Cl)cc23)CC1` [SERTINDOLE], the AC50 was 16 µM in experiment [1], 27 µM in experiment [3], above 30 µM in experiment [4] and above 30 µM in experiment [5].
In the case of `CN[C@@H]1[C@H](O)[C@H](NC)[C@H]2O[C@@]3(O)C(=O)C[C@@H](C)O[C@H]3O[C@@H]2[C@H]1O` [SPECTINOMYCIN], the AC50 in experiment [1], in experiment [2], in experiment [3], in experiment [4] and in experiment [5] was above 10 µM in each case.
Turning to `COc1c(N2CCNC(C)C2)c(F)cc2c(=O)c(C(=O)O)cn(C3CC3)c12` (stereo unspecified) [GATIFLOXACIN], the AC50 in experiment [1], in experiment [2], in experiment [3], in experiment [4] and in experiment [5] was above 10 µM each time.
For `Cc1cccc(C)c1NC(=O)C1CCCCN1C` (stereo unspecified) [MEPIVACAINE], the AC50 in experiment [1], in experiment [2], in experiment [3], in experiment [4] and in experiment [5] was above 30 µM throughout.
Consider `Cc1c(O)c(=O)ccn1C` [DEFERIPRONE], for which the AC50 in experiment [1], in experiment [2], in experiment [3], in experiment [4] and in experiment [5] was above 30 µM throughout.
Turning to `CC(C)c1c(C(=O)Nc2ccccc2)c(-c2ccccc2)c(-c2ccc(F)cc2)n1CC[C@@H](O)C[C@@H](O)CC(=O)O` [ATORVASTATIN], the AC50 in experiment [1] is above 30 µM; in experiment [2] it was above 10 µM; in experiment [3], above 30 µM; in experiment [4], above 30 µM.
For `COc1ccc2c(c1)c(CC(=O)OCC(=O)O)c(C)n2C(=O)c1ccc(Cl)cc1` [ACEMETACIN], the AC50 in experiment [1], in experiment [2], in experiment [3], in experiment [4] and in experiment [5] was above 30 µM throughout.
As to `CCCCN1CCCCC1C(=O)Nc1c(C)cccc1C` (stereo unspecified) [BUPIVACAINE], the AC50 in experiment [1], in experiment [2], in experiment [3], in experiment [4] and in experiment [5] was above 30 µM in each case.
For the compound `Cc1cc2c(OCC(CNC(C)(C)C)OC(=O)c3ccccc3)cccc2[nH]1` (stereo unspecified) [BOPINDOLOL], the AC50 in experiment [1] was above 30 µM; in experiment [2], 3 µM; in experiment [3] it was above 30 µM; in experiment [4] it was above 30 µM; in experiment [5], above 30 µM.
For the compound `NC(=O)C[S+]([O-])C(c1ccccc1)c1ccccc1` (stereo unspecified) [MODAFINIL], the AC50 was 13.4 µM in experiment [1], above 10 µM in experiment [2], above 30 µM in experiment [3] and above 30 µM in experiment [4].
Take `CCNC(C)Cc1cccc(C(F)(F)F)c1` (stereo unspecified) [FENFLURAMINE]: the AC50 in experiment [1], in experiment [3] and in experiment [4] was above 30 µM in each case.
For `C#CCN(C)[C@H](C)Cc1ccccc1` [SELEGILINE], the AC50 in experiment [1] was above 10 µM; in experiment [2], 2.9 µM; in experiment [3], above 10 µM; in experiment [4], above 10 µM; in experiment [5], above 10 µM.
Take `CN1CCc2cccc3c2[C@H]1Cc1ccc(O)c(O)c1-3` [APOMORPHINE]: the AC50 in experiment [1] is 0.67 µM; in experiment [2], 3.2 µM; in experiment [3], above 30 µM; in experiment [4], above 30 µM.
`C[C@]12CCC(=O)C=C1CC[C@@H]1[C@@H]2CC[C@@]2(C)[C@H]1CC[C@]2(C)O` [METHYLTESTOSTERONE]: the AC50 in experiment [1] was above 30 µM; in experiment [2], above 30 µM; in experiment [3], above 30 µM; in experiment [4], above 30 µM; in experiment [5], 0.2 µM.
Regarding `CC(C)(Oc1ccc(C2CC2(Cl)Cl)cc1)C(=O)O` (stereo unspecified) [CIPROFIBRATE], the AC50 in experiment [1], in experiment [2], in experiment [3], in experiment [4] and in experiment [5] was above 30 µM each time.
As for `CN1C(=O)COc2c(C(=O)NC3CN4CCC3CC4)cc(Cl)cc21` (stereo unspecified) [AZASETRON], the AC50 in experiment [1], in experiment [2], in experiment [3], in experiment [4] and in experiment [5] was above 30 µM in each case.
